Ends that are not written are not given here.

One data set deals with CSP. Particulars: input parameter applied to all patients in the Krogh cylinder model, no reference given, cited from earlier work.
Data set [1] has as its target T1, CSP in pancreatic tumors (Homo sapiens, UniProt Q15149). On the set-up: CSP, typically localized intracellularly in healthy cells, is aberrantly expressed on the surface of cancer cells; from tissue; host or cells: pancreatic tumours of patients, imaged in vivo and as resected specimens. Particulars: in vivo, iv, 100 ug. Here is the method:
(§1) Each patient received a single intravenous 100 µg bolus dose of PTP-01 labeled with 370 MBq ^111In. Whole-body planar scintigraphy was performed at 10 min post-injection, followed by scans at 1, 2, 3, 4, 20, and 50 h. SPECT/CT imaging was performed at 4, 20, and 50 h post-injection using a Siemens Symbia™ T6 dual-head SPECT/CT system with low-energy high-resolution (LEHR) collimators optimized for ^111In imaging. […] Quantitative analysis was conducted at the time using fused SPECT/CT images, and planar imaging remains available for biodistribution assessment. Tumor ROIs were initially defined using fused SPECT/CT images and cross-referenced with planar data for consistency. […] However, attenuation correction was not applied to the SPECT images, as full quantitative SPECT reconstruction was not supported by the scanner at the time. Quantitative analysis (%ID) was derived from planar scintigraphy data using calibration factors from a standard source (syringe) imaged under identical conditions. While SPECT/CT facilitated ROI placement, quantitative measurements were based on planar scintigraphy due to the absence of attenuation-corrected SPECT data. […]
For in vivo images, we generated eight ROIs for each patient, including bladder, heart, left kidney, right kidney, liver, syringe, whole body, and tumor. […] Results were expressed as percent injected dose (%ID). […]

For data set [2] the following is noted: human, in vivo. Here is the method:
as §1
Blood clearance parameters were calculated individually for each patient based on a biexponential fit to blood %ID/g data. […]

In data set [3] the target is T1, CSP in pancreatic tumors. Briefly: Ex vivo planar scintigraphy of resected tumor and adjacent normal tissue. The data set is classed as in vivo. On the set-up: from tissue; host or cells: pancreatic tumours of patients, imaged in vivo and as resected specimens. Here is the method:
Following surgery, ex vivo planar images of the resected tumor and adjacent normal tissue (e.g., pancreas and duodenum) were obtained at 28 h post-injection. This timing aligns with surgical resection, allowing immediate imaging of fresh specimens. A white light image was collected for one patient to confirm tumor localization, but these images were not systematically obtained.
For ex vivo images, tumor ROIs were drawn using white light imaging, with the surrounding tissue considered background. […] The activity was calculated using planar data methods, ignoring the self-attenuation of the tissue because of tissue thickness.

Data set [4] relates to CSP (plectin) in murine tumor models. Particulars: preclinical SPECT imaging of murine tumor models; cited from earlier work. The source says:
The CSP-targeting peptide KTLLPTP has been adapted for numerous applications as a targeting ligand for imaging agents. […] Tumor models with higher CSP levels also had correspondingly high tumor uptake of ^99mTc-KTLLPTP. Here we report the results of a phase 0 trial examining a tetrameric version of KTLLPTP labeled with ^111In called PTP-01 (NCT01962909) in patients with resectable p ...

T1 sequence (Q15149 whole entry, the tested form may be a part): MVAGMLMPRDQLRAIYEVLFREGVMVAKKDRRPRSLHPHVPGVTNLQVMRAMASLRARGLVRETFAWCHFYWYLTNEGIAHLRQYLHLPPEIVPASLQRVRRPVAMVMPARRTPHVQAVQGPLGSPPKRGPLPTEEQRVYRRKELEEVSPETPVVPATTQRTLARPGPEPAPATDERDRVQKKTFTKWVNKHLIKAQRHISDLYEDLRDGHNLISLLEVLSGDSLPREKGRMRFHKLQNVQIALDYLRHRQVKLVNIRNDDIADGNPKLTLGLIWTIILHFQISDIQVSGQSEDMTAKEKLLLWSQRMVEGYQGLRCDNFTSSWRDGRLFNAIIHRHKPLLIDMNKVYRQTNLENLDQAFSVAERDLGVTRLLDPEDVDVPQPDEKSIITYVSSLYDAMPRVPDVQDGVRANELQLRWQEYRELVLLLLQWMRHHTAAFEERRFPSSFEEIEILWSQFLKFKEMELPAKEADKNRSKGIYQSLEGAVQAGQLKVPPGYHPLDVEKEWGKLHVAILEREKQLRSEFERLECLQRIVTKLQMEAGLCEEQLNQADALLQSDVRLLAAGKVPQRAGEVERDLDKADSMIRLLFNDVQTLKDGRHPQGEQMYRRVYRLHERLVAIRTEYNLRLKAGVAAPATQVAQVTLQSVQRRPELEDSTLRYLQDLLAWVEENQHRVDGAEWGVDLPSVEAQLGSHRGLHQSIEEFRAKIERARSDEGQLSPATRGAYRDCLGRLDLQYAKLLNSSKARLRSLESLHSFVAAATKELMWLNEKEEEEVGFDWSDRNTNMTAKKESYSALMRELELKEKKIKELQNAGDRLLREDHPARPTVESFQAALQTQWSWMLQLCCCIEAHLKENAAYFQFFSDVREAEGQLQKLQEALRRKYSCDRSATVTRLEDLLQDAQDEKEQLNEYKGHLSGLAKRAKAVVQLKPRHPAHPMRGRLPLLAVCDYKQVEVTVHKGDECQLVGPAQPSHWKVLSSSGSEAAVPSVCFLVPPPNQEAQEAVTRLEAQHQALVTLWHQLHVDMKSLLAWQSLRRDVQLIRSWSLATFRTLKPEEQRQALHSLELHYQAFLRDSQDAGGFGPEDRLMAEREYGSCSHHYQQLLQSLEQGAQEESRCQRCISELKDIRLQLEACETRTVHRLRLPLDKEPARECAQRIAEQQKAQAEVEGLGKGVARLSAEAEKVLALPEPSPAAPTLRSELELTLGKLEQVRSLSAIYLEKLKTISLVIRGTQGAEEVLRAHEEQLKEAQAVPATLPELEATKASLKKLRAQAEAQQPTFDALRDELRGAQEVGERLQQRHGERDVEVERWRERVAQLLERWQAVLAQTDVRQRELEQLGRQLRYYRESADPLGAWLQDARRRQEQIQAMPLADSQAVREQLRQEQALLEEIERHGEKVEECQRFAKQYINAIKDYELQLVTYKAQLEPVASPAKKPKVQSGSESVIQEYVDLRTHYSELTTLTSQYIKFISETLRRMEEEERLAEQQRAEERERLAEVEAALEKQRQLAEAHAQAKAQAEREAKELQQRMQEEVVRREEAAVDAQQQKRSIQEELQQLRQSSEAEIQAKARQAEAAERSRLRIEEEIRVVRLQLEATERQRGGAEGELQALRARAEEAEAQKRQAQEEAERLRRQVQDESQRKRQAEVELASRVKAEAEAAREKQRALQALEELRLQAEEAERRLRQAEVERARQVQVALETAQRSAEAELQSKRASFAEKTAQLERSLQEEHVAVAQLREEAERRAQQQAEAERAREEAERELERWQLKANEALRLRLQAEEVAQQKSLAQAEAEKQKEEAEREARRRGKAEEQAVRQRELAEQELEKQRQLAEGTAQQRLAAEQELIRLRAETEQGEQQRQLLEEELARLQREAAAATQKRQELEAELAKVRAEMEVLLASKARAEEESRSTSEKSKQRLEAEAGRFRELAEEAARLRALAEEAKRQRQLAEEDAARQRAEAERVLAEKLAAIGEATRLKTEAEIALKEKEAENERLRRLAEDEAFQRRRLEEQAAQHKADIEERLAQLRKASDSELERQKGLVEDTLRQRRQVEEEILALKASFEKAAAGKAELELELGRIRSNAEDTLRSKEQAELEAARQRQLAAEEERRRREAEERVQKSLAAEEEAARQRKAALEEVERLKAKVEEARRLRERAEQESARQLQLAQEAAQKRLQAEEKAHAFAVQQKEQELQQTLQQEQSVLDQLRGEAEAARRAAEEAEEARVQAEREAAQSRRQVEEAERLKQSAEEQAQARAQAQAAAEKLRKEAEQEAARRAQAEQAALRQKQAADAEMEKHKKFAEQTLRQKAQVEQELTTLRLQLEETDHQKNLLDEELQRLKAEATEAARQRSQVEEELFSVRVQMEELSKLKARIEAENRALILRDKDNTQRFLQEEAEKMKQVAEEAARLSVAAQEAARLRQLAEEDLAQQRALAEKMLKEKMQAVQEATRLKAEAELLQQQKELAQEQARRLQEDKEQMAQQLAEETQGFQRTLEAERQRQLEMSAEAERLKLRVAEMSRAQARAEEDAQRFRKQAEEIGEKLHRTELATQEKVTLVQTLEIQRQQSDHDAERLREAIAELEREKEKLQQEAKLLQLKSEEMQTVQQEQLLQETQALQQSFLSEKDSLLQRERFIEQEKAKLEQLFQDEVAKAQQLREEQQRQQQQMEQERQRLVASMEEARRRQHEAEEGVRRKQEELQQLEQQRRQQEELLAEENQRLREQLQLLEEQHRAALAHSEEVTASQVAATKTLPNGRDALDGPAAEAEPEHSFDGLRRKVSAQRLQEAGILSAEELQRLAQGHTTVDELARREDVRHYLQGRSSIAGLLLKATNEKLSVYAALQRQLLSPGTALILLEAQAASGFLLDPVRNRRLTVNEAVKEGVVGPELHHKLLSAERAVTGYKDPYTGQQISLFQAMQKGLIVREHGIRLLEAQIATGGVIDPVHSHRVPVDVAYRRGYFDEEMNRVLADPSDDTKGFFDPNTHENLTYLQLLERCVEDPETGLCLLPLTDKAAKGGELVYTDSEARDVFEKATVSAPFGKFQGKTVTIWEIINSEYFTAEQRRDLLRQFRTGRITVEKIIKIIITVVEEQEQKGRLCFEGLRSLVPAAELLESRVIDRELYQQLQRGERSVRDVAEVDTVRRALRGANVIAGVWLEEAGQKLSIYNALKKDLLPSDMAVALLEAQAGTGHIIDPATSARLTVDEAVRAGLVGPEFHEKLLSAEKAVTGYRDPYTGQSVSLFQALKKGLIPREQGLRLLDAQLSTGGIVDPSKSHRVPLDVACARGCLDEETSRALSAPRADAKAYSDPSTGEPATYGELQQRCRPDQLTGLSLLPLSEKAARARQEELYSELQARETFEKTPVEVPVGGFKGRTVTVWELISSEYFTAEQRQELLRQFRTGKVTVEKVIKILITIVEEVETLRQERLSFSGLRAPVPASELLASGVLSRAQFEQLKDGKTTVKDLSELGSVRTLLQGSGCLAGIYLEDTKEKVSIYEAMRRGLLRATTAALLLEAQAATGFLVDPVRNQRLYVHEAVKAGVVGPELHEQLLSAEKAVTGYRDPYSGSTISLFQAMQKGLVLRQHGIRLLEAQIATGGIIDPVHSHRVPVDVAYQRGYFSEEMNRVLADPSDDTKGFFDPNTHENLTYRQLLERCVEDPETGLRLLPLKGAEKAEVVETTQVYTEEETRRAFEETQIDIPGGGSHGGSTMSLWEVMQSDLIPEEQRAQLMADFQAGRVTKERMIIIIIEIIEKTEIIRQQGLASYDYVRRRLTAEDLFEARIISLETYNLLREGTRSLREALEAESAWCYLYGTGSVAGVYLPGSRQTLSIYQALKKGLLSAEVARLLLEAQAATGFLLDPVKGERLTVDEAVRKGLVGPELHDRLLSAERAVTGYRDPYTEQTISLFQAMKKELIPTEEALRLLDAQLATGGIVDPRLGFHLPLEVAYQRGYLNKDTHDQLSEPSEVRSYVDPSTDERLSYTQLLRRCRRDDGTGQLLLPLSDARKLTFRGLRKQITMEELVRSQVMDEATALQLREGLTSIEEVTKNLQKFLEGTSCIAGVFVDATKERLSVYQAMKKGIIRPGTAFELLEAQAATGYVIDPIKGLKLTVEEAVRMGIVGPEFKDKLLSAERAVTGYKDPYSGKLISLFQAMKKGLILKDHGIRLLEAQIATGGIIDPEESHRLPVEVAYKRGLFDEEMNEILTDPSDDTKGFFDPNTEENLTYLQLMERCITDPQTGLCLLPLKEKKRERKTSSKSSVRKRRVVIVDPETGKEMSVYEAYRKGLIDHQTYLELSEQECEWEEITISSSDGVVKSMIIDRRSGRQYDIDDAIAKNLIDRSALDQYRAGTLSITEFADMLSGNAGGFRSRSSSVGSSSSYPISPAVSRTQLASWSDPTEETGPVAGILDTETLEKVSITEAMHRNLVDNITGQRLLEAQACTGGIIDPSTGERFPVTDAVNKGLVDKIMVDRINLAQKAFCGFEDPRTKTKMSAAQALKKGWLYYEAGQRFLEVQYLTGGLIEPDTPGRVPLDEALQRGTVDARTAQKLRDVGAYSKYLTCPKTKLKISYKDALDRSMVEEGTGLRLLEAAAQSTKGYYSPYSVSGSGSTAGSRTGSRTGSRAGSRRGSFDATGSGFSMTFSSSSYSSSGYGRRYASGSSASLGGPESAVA

For “PTP-01: tetrameric version of KTLLPTP on a branched PEG linker, labeled with ^111In via DOTA; CSP-targeting imaging agent (also: tetramer on branched PEG linker, DOTA chelator labelled with 111In)”, in the data set on CSP, the “Association rate constant (kon)” value is 100000 M⁻¹ s⁻¹, the Internalization half-life was 13 h and the Residualization half-life is 120 h. Moreover, the Kd on CSP (read-out: Dissociation constant (KD)) was 90 nM. In the data set with CSP in pancreatic tumors [1], the “average cumulative retention in tumor” value came to 8.90 ± 3.31 %ID. Moreover, the “blood concentrations, fold higher than in the other two patients” value in data set [2] is reported as 50-70 fold. Moreover, the “elimination half-life (T1/2)” value in data set [2] (iv) is 5 to 22 h. The tumor-to-background ratio result in the data set with CSP in pancreatic tumors [3] (all three patients, confirmed by ex vivo planar scintigraphy) is reported as “exceeding 2”. For the same substance, in the data set with CSP in pancreatic tumors [3] (ex vivo planar scintigraphy of resected specimens, 28 h post-injection, mean across patients), the tumor-to-background ratio came to 2.18 ± 0.14.

In the case of ^99mTc-KTLLPTP, in data set [4], the “tumor accumulation, biodistribution and blood clearance” value was “a tumor accumulation and favorable biodistribution in addition to fast blood clearance”.

The term Kd denotes the free concentration of one partner at which half of the binding sites on the other are occupied at equilibrium, for simple one-to-one binding.

Values taken from publication PMC12162372, “Imaging Cell Surface Plectin in PDAC Patients – A First-In-Human Phase 0 Study Report” (Molecular Imaging and Biology, 2025).
